Data: paper PMC4684357, “Comparative Evaluation of the Antimicrobial Activity of Different Antimicrobial Peptides against a Range of Pathogenic Bacteria” (PLoS ONE, 2015)
Read-outs that look alike come from different tables or passages of the source. Residues, ends and D or L forms follow the SMILES beside them.

Columns and labels:
horse erythrocytes = experiment: Cytotoxicity assay: haemoglobin release (hemolytic activity); type: cell-based; details: washed horse erythrocytes 10% (v/v) in PBS, 60 min 37°C, absorbance 540 nm, relative to full lysis by 0.2% Triton X-100, average ± SD of duplicates
Method: The cytotoxicity for each AMP was determined spectrophotometrically by measuring the haemoglobin release from horse erythrocytes. Briefly, fresh defibrinated horse blood was washed three times with PBS, centrifuged for 15 minutes at 1000g and resuspended at 10% (v/v) in PBS. Samples of the washed horse erythrocytes (100 μl) were transferred to a 96 well microtiter plate and mixed with 100 μl AMP solution. PBS was used as a negative control, and 0.2% TritonX-100 was used as a positive control. The microtiter plates were incubated for 60 minutes at 37°C and then centrifuged for 10 minutes at 1300g. The supernatants were transferred to a flat-bottom 96 well polystyrene microtiter plate and the haemoglobin release was monitored by measuring the absorbance at 540 nm. The percentage of hemolysis was calculated as 100 *(Asample−APBS)/(ATritonX-100 –APBS), where Asample is the experimental absorbance of the peptide sample, APBS is the control absorbance of untreated erythrocytes, and ATritonX-100 is the absorbance of 0.2% TritonX-100 lysed cells.

BW25113 wild-type = experiment: MIC in LPS backgrounds; type: cell-based, Escherichia coli; details: E. coli BW25113 wild-type; CLSI; triplicates
From the text: (§1) The Yersinia ruckeri strain was kindly provided by Prof. Kurt Buchmann, University of Copenhagen, Faculty of Health and Medical Sciences, and the Flavobacterium psychrophilum strain was kindly provided by Prof. Inger Dalsgaard, DTU, Denmark. BW25113 is the Escherichia coli wild-type strain, a derivative of the F^-,λ^- E. coli K12 strain BD792 which was used in generating the KEIO collection. E. coli ATCC25922 is a clinical isolate, serotype O6 and is often used as control strain in antimicrobial susceptibility testing. All strains were grown in Mueller-Hinton-II medium, except L. monocytogenes which was grown in BHI medium and F. psychrophilum which was grown in TYES medium (Tryptone yeast extract plus salts). Incubation took place aerobically at 37°C, except for Y. ruckeri and A. salmonicida, which were grown aerobically at RT (20°C), C. jejuni NCTC11168 which was grown under microaerophilic conditions at 42°C and F. psychrophilum 1947 which was grown under aerobic conditions at 15°C. All plates were incubated for 18–20 hours, except the F. psychrophilum plates, which were incubated for 72 hours.
(§2) The minimum inhibitory concentrations (MICs) of the AMPs were measured in 96-well microtiter plates according to the Clinical and Laboratory Standards Institute (CLSI, formerly National Committee for Clinical Laboratory Standards [NCCLS]). Briefly, liquid Mueller-Hinton-II medium containing increasing concentrations of AMPs is inoculated with a defined number of cells (approx. 10^5 CFUs/ml) in 96-well microtiter plates (polypropylene), whereas each plate also includes a positive growth control and a negative control (sterile control). After incubation, the MIC is determined by the lowest concentration showing no visible growth. All plates were incubated for 18–20 hours, except the F. psychrophilum plates which were incubated for 72 hours.

BW25113 ΔrfaC = type: cell-based, Escherichia coli; details: E. coli BW25113 ΔrfaC; CLSI; triplicates
From the text: as §1, §2

BW25113 ΔrfaE = type: cell-based, Escherichia coli; details: E. coli BW25113 ΔrfaE; CLSI; triplicates
From the text: as §1, §2

BW25113 ΔrfaF = type: cell-based, Escherichia coli; details: E. coli BW25113 ΔrfaF; CLSI; triplicates
From the text: as §1, §2

BW25113 ΔrfaG = type: cell-based, Escherichia coli; details: E. coli BW25113 ΔrfaG; CLSI; triplicates
From the text: as §1, §2

ATCC25922 ΔrfaC = type: cell-based, Escherichia coli; details: E. coli ATCC25922 ΔrfaC; CLSI; triplicates
From the text: as §1, §2
(§3) Construction of knock-out mutants of E. coli ATCC25922 were constructed using the λ-Red recombinase gene replacement system. Primers for amplification of the npt gene of pKD4 are listed in S1 Table. The correct double-crossover and recombination event was confirmed by primers listed in S1 Table and by sequencing. Finally, the kanamycin cassette was removed.

ATCC25922 ΔrfaE = type: cell-based, Escherichia coli; details: E. coli ATCC25922 ΔrfaE; CLSI; triplicates
From the text: as §1, §2, §3

ATCC25922 ΔrfaF = type: cell-based, Escherichia coli; details: E. coli ATCC25922 ΔrfaF; CLSI; triplicates
From the text: as §1, §2, §3

ATCC25922 ΔrfaG = type: cell-based, Escherichia coli; details: E. coli ATCC25922 ΔrfaG; CLSI; triplicates
From the text: as §1, §2, §3

E. coli ATCC25922 [1] = type: cell-based, Escherichia coli
From the text: as §1
All plates were incubated for 18–20 hours, except the F. psychrophilum plates which were incubated for 72 hours.
All the MIC measurements were carried out in duplicate.

E. coli ATCC25922 [2] = system: E. coli ATCC25922
Method: as §2, with “hours. […]” for “hours.”

SMILES | Hemolytic Activity (horse erythrocytes; peptide 256 μg/ml) [%] | Hemolytic Activity (horse erythrocytes; peptide 128 μg/ml) [%] | Antimicrobial Activity MIC (BW25113 wild-type) [µg/mL] | Antimicrobial Activity MIC (BW25113 ΔrfaC) [µg/mL] | Antimicrobial Activity MIC (BW25113 ΔrfaE) [µg/mL] | Antimicrobial Activity MIC (BW25113 ΔrfaF) [µg/mL] | Antimicrobial Activity MIC (BW25113 ΔrfaG) [µg/mL] | Antimicrobial Activity MIC (ATCC25922 ΔrfaC) [µg/mL] | Antimicrobial Activity MIC (ATCC25922 ΔrfaE) [µg/mL] | Antimicrobial Activity MIC (ATCC25922 ΔrfaF) [µg/mL] | Antimicrobial Activity MIC (ATCC25922 ΔrfaG) [µg/mL] | Antimicrobial Activity MIC (E. coli ATCC25922 [1]) [µg/mL] | Antimicrobial Activity MIC (E. coli ATCC25922 [2]) [µg/mL]
CC[C@H](C)[C@H](NC(=O)[C@@H]1CCCN1C(=O)[C@H](CCCNC(=N)N)NC(=O)[C@@H]1CCCN1C(=O)[C@@H]1CCCN1C(=O)[C@@H](NC(=O)[C@@H]1CCCN1C(=O)[C@H](CCCNC(=N)N)NC(=O)[C@@H]1CCCN1C(=O)[C@H](CC(C)C)NC(=O)[C@H](Cc1ccc(O)cc1)NC(=O)[C@H](CO)NC(=O)CNC(=O)[C@H](CCCCN)NC(=O)[C@H](CC(=O)O)NC(=O)[C@@H](N)C(C)C)[C@@H](C)O)C(=O)N[C@@H](Cc1ccc(O)cc1)C(=O)N[C@@H](CC(N)=O)C(=O)N[C@@H](CCCNC(=N)N)C(=O)N[C@@H](CC(N)=O)C(=O)O [Pyrrhocoricin] (H-VDKGSYLPRPTPPRPIYNRN-OH) | 0 ± 0 |  |  |  |  |  |  |  |  |  |  |  | 
CC[C@H](C)[C@H](NC(=O)CN)C(=O)NCC(=O)N[C@@H](C)C(=O)N[C@H](C(=O)N[C@@H](CC(C)C)C(=O)N[C@@H](CCCCN)C(=O)N[C@H](C(=O)N[C@@H](CC(C)C)C(=O)N[C@H](C(=O)N[C@H](C(=O)NCC(=O)N[C@@H](CC(C)C)C(=O)N1CCC[C@H]1C(=O)N[C@@H](C)C(=O)N[C@@H](CC(C)C)C(=O)N[C@H](C(=O)N[C@@H](CO)C(=O)N[C@@H](Cc1c[nH]c2ccccc12)C(=O)N[C@H](C(=O)N[C@@H](CCCCN)C(=O)N[C@@H](CCCNC(=N)N)C(=O)N[C@@H](CCCCN)C(=O)N[C@@H](CCCNC(=N)N)C(=O)N[C@@H](CCC(N)=O)C(=O)N[C@@H](CCC(N)=O)C(N)=O)[C@@H](C)CC)[C@@H](C)CC)[C@@H](C)O)[C@@H](C)O)C(C)C)C(C)C [Melittin, reference compound] |  | 110 ± 1 | 16 to 32 | 4 | 4 | 4 | 4 | 2 | 2 | 2 | 4 |  | 
CC[C@H](C)[C@H](NC(=O)[C@H](CCCCN)NC(=O)[C@H](CCCCN)NC(=O)[C@H](CC(C)C)NC(=O)[C@H](CCCCN)NC(=O)[C@H](CCC(=O)O)NC(=O)[C@H](CCCCN)NC(=O)[C@@H](NC(=O)[C@H](CCCCN)NC(=O)[C@H](CC(N)=O)NC(=O)[C@H](CCCNC(=N)N)NC(=O)[C@H](Cc1ccccc1)NC(=O)[C@H](CCCCN)NC(=O)[C@H](CCCNC(=N)N)NC(=O)[C@H](CC(C)C)NC(=O)[C@H](CCCNC(=N)N)NC(=O)[C@H](CCCCN)NC(=O)[C@H](CCCNC(=N)N)NC(=O)[C@H](CC(C)C)NC(=O)CN)[C@@H](C)CC)C(=O)NCC(=O)N[C@@H](CCC(N)=O)C(=O)N[C@@H](CCCCN)C(=O)N[C@H](C(=O)N[C@@H](CCC(N)=O)C(=O)NCC(=O)N[C@@H](CC(C)C)C(=O)N[C@@H](CC(C)C)C(=O)N1CCC[C@H]1C(=O)N[C@@H](CCCCN)C(=O)N[C@@H](CC(C)C)C(=O)N[C@@H](C)C(=O)N1CCC[C@H]1C(=O)N[C@@H](CCCNC(=N)N)C(=O)N[C@H](C(=O)N[C@@H](CC(=O)O)C(=O)N[C@@H](Cc1ccc(O)cc1)C(=O)O)[C@@H](C)O)[C@@H](C)CC [Cap18] (H-GLRKRLRKFRNKIKEKLKKIGQKIQGLLPKLAPRTDY-OH) |  |  | 4 to 8 | 4 | 4 | 4 | 4 | 2 | 2 | 2 | 2 | 4 | 8
